{
  "source": "paper PMC10147607",
  "about": "“MSI2 promotes translation of multiple IRES-containing oncogenes and virus to induce self-renewal of tumor initiating stem-like cells” (Cell Death Discovery, 2023)",
  "key": {"[1]": {"biological_target": "T1, MSI2 (full-length, wild type; recombinant MSI2) (Homo sapiens, UniProt Q96DH6)", "T1 construct": "full-length recombinant MSI2, purified; His6-tagged in EMSA (MSI2-His6)", "T1 sequence (Q96DH6 whole entry)": "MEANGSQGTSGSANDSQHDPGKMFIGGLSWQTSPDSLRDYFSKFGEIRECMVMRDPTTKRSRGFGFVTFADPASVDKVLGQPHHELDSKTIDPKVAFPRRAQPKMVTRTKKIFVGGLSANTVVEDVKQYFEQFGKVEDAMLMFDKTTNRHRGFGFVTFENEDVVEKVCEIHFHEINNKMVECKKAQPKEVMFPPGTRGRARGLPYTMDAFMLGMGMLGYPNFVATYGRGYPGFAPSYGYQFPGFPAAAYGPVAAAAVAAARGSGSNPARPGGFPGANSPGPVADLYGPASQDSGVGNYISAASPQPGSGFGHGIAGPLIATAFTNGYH", "assay": "microscale thermophoresis (MST)", "format": "binding"}, "[2]": {"biological_target": "T1, MSI2 (full-length, wild type; recombinant MSI2)", "assay": "ligand binding curve, probably MST (method for gossypol not stated explicitly)"}},
  "data": [
    {"smiles": "CC(C)(Sc1ccc(CCN(CCCCC2CCCCC2)C(=O)NC2CCCCC2)cc1)C(=O)O", "note": "[GW7647]", "values": [
      {"measurement": "Kd", "setting": "[1]", "value": 1.2, "unit": "µM"}
    ]},
    {"smiles": "Cc1cc2c(C(C)C)c(O)c(O)c(C=O)c2c(O)c1-c1c(C)cc2c(C(C)C)c(O)c(O)c(C=O)c2c1O", "note": "[Gossypol]", "values": [
      {"measurement": "Kd", "setting": "[2]", "value": 35, "unit": "µM"}
    ]}
  ]
}
